This is an account of results in PubChem BioAssay AID1996.

≈ marks a conversion by molar mass, not a printed value. A value given as a limit tells only on which side of the number the result lay.

The conditions of this data set: buffer; pH 7.4; 200.0 µM.
Turning to `Cc1cc(C)cc(NC(=S)N(CCN(C)C)Cc2cccs2)c1`, the solubility (kinetic) (as a rule, solubility judged after dilution from a stock solution rather than from solid) came to 43.7 µg/mL (≈ 126 µM).

`Oc1c(Cl)cc(Cl)c2c1NCCC2` came in with a solubility (kinetic) of 7 µg/mL (≈ 32.1 µM).

Turning to `CCc1nc(C(N)=O)c2[nH]c(=O)n(-c3ccc(OC)cc3OC)c2n1`, the solubility (kinetic) is greater than 51.5 µg/mL.

`Cc1cc(C)c(C#N)c(SC(C(=O)NC(C)(C)C)c2ccccc2)n1` (stereo unspecified) returned a kinetic solubility of less than 0.3 µg/mL.

`COc1ccc(CNC(=O)Cc2cccs2)cc1` returned a solubility (kinetic) of 26.9 µg/mL (≈ 103 µM).

In turn, `CC(SC1=NCCN1S(C)(=O)=O)c1ccccc1` (stereo unspecified) had a solubility (kinetic) of 42.5 µg/mL (≈ 149 µM).

On to `CC1CCCCN1S(=O)(=O)c1cccc2nonc12` (stereo unspecified), for which the solubility (kinetic) came to 39.6 µg/mL (≈ 141 µM).

On to `O=C(NCc1ccncc1)C(=O)NCc1ccncc1`, for which the solubility (kinetic) is greater than 40.5 µg/mL.

`COc1ccc(C=O)cc1CSc1ncccc1C(=O)O`: the kinetic solubility is greater than 45.5 µg/mL.

`COC(=O)/C(C#N)=C\c1c(OC)[nH]c2ccccc12` registered a solubility (kinetic) of 1.1 µg/mL (≈ 4.29 µM).

As to `CC(C)(C)c1ccc(S(=O)(=O)N2CCNC(=O)C2)cc1`, the kinetic solubility was 42 µg/mL (≈ 142 µM).

Consider `COc1ccc(OC)c(S(=O)(=O)N2CCN3CCCC3C2)c1` (stereo unspecified), for which the kinetic solubility was greater than 49 µg/mL.

Regarding `Cc1cc(N2CCOCC2)nc2ccc(NC(=S)N3CCCCC3C)cc12` (stereo unspecified), the kinetic solubility came out at 41.5 µg/mL (≈ 108 µM).

Take `O=C1CCCN1S(=O)(=O)c1ccc(F)cc1`: the kinetic solubility was greater than 36.5 µg/mL.

With `COc1ccc(C2(C)NC(=O)NC2=O)cc1OC` (stereo unspecified), the solubility (kinetic) is greater than 37.5 µg/mL.

`COP(=O)(OC)C(Nc1ccccc1)c1ccccc1` (stereo unspecified): the kinetic solubility was greater than 43.7 µg/mL.

As for `Cc1ccc(N=C(N)N=C(N)N)cc1`, the kinetic solubility was greater than 28.7 µg/mL.

`CC(C(=O)OCC(=O)N1CCCCC1)N1C(=O)c2ccccc2C1=O` (stereo unspecified) displayed a solubility (kinetic) greater than 51.7 µg/mL.

Take `Cc1cc(C)nc(NC(=O)Cc2ccc(Cl)cc2)c1`: the kinetic solubility came out at 8.6 µg/mL (≈ 31.3 µM).

For `CCc1ccc(NC(=O)CSc2ccccn2)cc1`, the kinetic solubility was 33.7 µg/mL (≈ 124 µM).

`Cc1c(Cl)cccc1NC(=O)Cn1c(-c2ccc(F)cc2)noc1=O` yielded a kinetic solubility of 4 µg/mL (≈ 11.1 µM).

On to `CC(=O)Nc1ccc(NC(=O)C(C)OC(=O)[C@@H]2CCCN2C(=O)c2cccs2)cc1` (stereo partly specified), for which the kinetic solubility is greater than 64.4 µg/mL.

Consider `CC(C)(C)OC(=O)NC1CC2CCCC(C1)N2Cc1ccccc1` (stereo unspecified), for which the solubility (kinetic) is greater than 49.6 µg/mL.

For the molecule `Cc1cc(Nc2cc(Cl)cc(Cl)c2)nc(N)n1`, the solubility (kinetic) turned out to be 20 µg/mL (≈ 74.3 µM).

Turning to `CS(=O)(=O)N(CC(=O)N1CCCC1)c1cccc(F)c1`, the solubility (kinetic) is 44.3 µg/mL (≈ 147 µM).

`CCCC(=O)Nc1ccc(-c2cn3cccnc3n2)cc1` gave a solubility (kinetic) greater than 42 µg/mL.

Take `CC(NC(=O)c1ccccc1Cl)c1ccc(-n2ccnc2)cc1` (stereo unspecified): the kinetic solubility was greater than 48.9 µg/mL.

For the molecule `Cn1c(N)c(C(=O)COC(=O)c2ccccc2C(F)(F)F)c(=O)n(C)c1=O`, the kinetic solubility was found to be 6.3 µg/mL (≈ 16.4 µM).

In the case of `Cc1nn(CC(=O)NC2(C#N)CCCCC2)c(C)c1[N+](=O)[O-]`, the solubility (kinetic) was greater than 45.8 µg/mL.

The molecule `CCOC(=O)c1ccc(NCCOC)c([N+](=O)[O-])c1` had a kinetic solubility of 33.2 µg/mL (≈ 124 µM).

As to `CC(C(=O)Nc1ccc(Cl)cc1)N1C(=O)NC2(CCCC2)C1=O` (stereo unspecified), the kinetic solubility is 25.8 µg/mL (≈ 76.8 µM). The solubility kinetic values of the last two molecules are within 1.5-fold of each other.

On to `CCOC(=O)C1=C(C)N(C)C(=S)NC1c1c(OCC)ccc2ccccc12` (stereo unspecified), for which the solubility (kinetic) is less than 0.4 µg/mL.

For `Cc1cc(N2CC(C)OC(C)C2)n2cc(-c3ccccc3)nc2n1` (stereo unspecified), the solubility (kinetic) stood at 15.4 µg/mL (≈ 47.8 µM).

As for `O=C(COC(=O)/C=C/c1ccco1)NCc1ccc(Cl)cc1Cl`, the kinetic solubility is 7.6 µg/mL (≈ 21.5 µM).

In turn, `COc1cccc(Oc2ncnc(N)c2[N+](=O)[O-])c1` came in with a kinetic solubility of 31 µg/mL (≈ 118 µM).

On to `CCNC(=S)Nc1ccc(-c2nc3ccccc3[nH]2)cc1`, for which the kinetic solubility was greater than 44.5 µg/mL.

`Cc1cc(NC(=O)CSc2nnc(C)o2)no1`: the solubility (kinetic) is greater than 38.1 µg/mL.

`COc1ccc(Cc2nc(C)cc(Cl)n2)cc1[N+](=O)[O-].Cl` returned a solubility (kinetic) greater than 49.5 µg/mL.

On to `Cc1ccc2cc([N+](=O)[O-])ccc2n1`, for which the kinetic solubility is 20.5 µg/mL (≈ 109 µM).

Turning to `CC(C)N(C(=O)Nc1ccc2nsnc2c1)C(C)C`, the solubility (kinetic) is greater than 41.8 µg/mL.

The molecule `NC(=O)C1(C(N)=O)OC1c1ccc(Cl)cc1Cl` (stereo unspecified) had a kinetic solubility greater than 41.3 µg/mL.
